As a reminder, the IC50 is the concentration that inhibits the measured activity by half.

The record followed here is ChEMBL document CHEMBL5346896, “Development of indolealkylamine derivatives as potential multi-target agents for COVID-19 treatment” (Eur J Med Chem, 2023).

The test system of this experiment is SARS-CoV-2. Description: Antiviral activity against SARS-CoV-2 spike pseudotyped lentivirus infected in HEK293 cells expressing human ACE2 assessed as inhibition of viral entry into cells preincubated with cell for 1 hrs followed by viral infection for 1 hrs and further replaced with fresh medium and measured 48 hrs post transduction by luminescence based luciferase reporter assay. The settings on record: Severe acute respiratory syndrome coronavirus 2, HEK-293T. It is filed as functional, organism-based, HEK293T. In general terms: Reporter assays use an easily measured gene product as a stand-in for the process of interest.

With `COc1ccc2[nH]c(C(O)c3ccc(Cl)cc3)c(CCNC(C)=O)c2c1` (configuration not stated), the IC50 was ~1000 nM.

For `COC(=O)NCCc1c(C(O)c2ccccc2)[nH]c2ccc(OC)cc12` (configuration not stated), the half-inhibitory concentration (IC50) was ~1000 nM.
